Measurements reported in ChEMBL document CHEMBL4732124 (Eur J Med Chem, 2021).

target: T1, Vascular endothelial growth factor receptor 3 (Homo sapiens, UniProt P35916); experiment: Inhibition of Flt4 (unknown origin) in presence of [gamma33]-ATP by liquid scintillation counting analysis; details: not given
T1 sequence (P35916 whole entry): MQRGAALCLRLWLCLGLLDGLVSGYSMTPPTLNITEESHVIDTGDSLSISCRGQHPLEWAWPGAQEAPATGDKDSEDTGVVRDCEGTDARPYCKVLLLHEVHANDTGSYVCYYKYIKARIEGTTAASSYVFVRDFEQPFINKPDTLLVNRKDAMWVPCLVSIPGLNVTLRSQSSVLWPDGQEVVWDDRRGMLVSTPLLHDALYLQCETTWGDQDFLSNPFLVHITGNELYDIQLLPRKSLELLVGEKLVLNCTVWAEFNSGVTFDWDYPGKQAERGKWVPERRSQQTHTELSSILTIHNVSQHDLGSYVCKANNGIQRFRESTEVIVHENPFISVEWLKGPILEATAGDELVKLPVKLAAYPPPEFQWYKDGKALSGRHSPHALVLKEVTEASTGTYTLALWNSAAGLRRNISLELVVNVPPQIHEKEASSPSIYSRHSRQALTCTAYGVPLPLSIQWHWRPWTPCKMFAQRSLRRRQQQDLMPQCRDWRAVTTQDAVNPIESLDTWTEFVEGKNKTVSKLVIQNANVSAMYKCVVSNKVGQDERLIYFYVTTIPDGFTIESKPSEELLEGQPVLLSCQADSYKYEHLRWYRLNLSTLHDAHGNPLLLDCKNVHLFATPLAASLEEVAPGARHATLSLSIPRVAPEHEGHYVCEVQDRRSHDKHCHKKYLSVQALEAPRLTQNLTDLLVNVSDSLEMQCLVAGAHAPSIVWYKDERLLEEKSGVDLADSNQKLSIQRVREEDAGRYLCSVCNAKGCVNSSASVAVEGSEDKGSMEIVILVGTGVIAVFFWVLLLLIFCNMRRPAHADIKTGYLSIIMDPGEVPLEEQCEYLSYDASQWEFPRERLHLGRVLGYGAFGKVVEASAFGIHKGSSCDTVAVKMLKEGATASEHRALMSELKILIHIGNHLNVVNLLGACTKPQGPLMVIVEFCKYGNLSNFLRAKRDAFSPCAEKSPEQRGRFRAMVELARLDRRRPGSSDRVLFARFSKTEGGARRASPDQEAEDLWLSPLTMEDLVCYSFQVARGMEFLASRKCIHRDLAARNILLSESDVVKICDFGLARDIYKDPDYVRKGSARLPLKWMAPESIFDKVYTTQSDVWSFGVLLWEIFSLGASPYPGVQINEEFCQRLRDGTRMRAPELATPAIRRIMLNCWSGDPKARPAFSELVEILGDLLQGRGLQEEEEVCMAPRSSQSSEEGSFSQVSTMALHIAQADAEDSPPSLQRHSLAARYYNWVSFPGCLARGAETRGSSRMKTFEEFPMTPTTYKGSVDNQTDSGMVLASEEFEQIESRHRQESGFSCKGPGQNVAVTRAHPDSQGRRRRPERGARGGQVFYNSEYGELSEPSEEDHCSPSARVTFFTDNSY

Row | IC50 [µM] | SMILES
1 | 0.0957 | CNC(=O)c1cc(-n2ccc3cc(NC(=O)Nc4ccc(N5CCN(C)CC5)c(C(F)(F)F)c4)ccc32)ccn1

test system: HepG2; experiment: Antiproliferative activity against human HepG2 cells assessed as cell viability at 10 uM after 48 hrs by MTT assay relative to control; assay type: functional; details: read-out: Activity

Row | SMILES | viability at 10 µM [%]
2 | CNC(=O)c1cc(-n2ccc3cc(NS(=O)(=O)c4cccc(C(F)(F)F)c4)ccc32)ccn1 | 88
3 | CNC(=O)c1cc(-n2ccc3cc(NC(=S)Nc4ccc(Cl)c(C(F)(F)F)c4)ccc32)ccn1 | 60
4 | CNC(=O)c1cc(-n2ccc3cc(NC(=O)c4ccc(N5CCOCC5)c(C(F)(F)F)c4)ccc32)ccn1 | 72
5 | CNC(=O)c1cc(-n2ccc3cc(NS(=O)(=O)c4ccc(Cl)c(Cl)c4)ccc32)ccn1 | 97
6 | CNC(=O)c1cc(-n2ccc3cc(NC(=O)Nc4ccc(N5CCN(C)CC5)c(C(F)(F)F)c4)ccc32)ccn1 | 27
7 | CNC(=O)c1cc(-n2ccc3cc(NC(=O)Nc4ccc(Cl)c(C(F)(F)F)c4)ccc32)ccn1 | 55

test system: Hep 3B2; experiment: Antiproliferative activity against human Hep3B cells assessed as reduction in cell viability after 48 hrs by MTT assay; assay type: functional, cell-based; details: not given

Row | SMILES | IC50 [µM]
8 | CNC(=O)c1cc(-n2ccc3cc(NC(=S)Nc4ccc(Cl)c(C(F)(F)F)c4)ccc32)ccn1 | 13.9
9 | CNC(=O)c1cc(-n2ccc3cc(NC(=O)Nc4ccc(N5CCN(C)CC5)c(C(F)(F)F)c4)ccc32)ccn1 | 8.01
10 | CNC(=O)c1cc(-n2ccc3cc(NC(=O)Nc4ccc(Cl)c(C(F)(F)F)c4)ccc32)ccn1 | 12.3

target: RAF proto-oncogene serine/threonine-protein kinase (Homo sapiens) (UniProt P04049); experiment: Inhibition of C-Raf (unknown origin) in presence of [gamma33]-ATP at 10 uM by liquid scintillation counting analysis relative to control; details: not given

Row | inhibition [%] | SMILES
11 | -0.5 | CNC(=O)c1cc(-n2ccc3cc(NC(=O)Nc4ccc(N5CCN(C)CC5)c(C(F)(F)F)c4)ccc32)ccn1

target: T2, Vascular endothelial growth factor receptor 2 (Homo sapiens, UniProt P35968); experiment: Inhibition of VEGFR2 autophosphorylation in VEGF-stimulated human HepG2 cells after 2 hrs Western blot analysis; details: dose 1-3 µM
T2 sequence (P35968 whole entry): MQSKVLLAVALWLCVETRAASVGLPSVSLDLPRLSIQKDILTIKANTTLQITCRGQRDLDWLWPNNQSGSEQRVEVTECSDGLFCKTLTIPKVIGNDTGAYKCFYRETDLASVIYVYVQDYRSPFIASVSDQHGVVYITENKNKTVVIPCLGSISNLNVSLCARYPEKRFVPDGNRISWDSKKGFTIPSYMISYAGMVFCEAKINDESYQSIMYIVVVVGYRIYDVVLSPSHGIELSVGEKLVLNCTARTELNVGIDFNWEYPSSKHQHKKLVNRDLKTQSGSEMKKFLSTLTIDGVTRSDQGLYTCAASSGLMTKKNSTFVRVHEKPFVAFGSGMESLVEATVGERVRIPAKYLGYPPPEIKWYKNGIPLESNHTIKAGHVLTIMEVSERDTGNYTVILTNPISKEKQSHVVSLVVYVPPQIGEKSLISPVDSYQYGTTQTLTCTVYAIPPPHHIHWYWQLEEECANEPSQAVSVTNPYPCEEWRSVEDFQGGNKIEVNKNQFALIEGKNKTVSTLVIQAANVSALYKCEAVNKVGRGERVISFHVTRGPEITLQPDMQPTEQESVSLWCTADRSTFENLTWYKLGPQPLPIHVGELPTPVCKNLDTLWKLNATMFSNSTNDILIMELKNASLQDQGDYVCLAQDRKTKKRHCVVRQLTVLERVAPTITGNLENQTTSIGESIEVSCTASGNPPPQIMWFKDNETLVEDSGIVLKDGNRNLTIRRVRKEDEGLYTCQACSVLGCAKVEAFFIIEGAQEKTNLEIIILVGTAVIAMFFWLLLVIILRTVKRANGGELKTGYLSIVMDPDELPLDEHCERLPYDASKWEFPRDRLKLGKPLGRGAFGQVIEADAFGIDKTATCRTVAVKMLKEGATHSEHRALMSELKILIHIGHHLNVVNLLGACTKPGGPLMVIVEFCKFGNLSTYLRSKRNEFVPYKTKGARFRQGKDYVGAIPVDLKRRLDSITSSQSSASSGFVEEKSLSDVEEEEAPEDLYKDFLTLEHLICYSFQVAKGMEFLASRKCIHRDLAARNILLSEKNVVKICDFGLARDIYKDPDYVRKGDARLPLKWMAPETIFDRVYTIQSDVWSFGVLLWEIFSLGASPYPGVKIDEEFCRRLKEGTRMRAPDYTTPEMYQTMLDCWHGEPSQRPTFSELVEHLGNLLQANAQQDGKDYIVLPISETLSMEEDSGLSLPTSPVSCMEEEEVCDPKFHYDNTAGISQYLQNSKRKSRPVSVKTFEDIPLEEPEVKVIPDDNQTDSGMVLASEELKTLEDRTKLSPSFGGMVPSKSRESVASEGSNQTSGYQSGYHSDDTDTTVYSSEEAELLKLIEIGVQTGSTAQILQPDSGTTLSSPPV

Row | inhibition | SMILES
12 | Dose-dependent effect | CNC(=O)c1cc(-n2ccc3cc(NC(=O)Nc4ccc(N5CCN(C)CC5)c(C(F)(F)F)c4)ccc32)ccn1

test system: HepG2; experiment: Antiproliferative activity against human HepG2 cells assessed as reduction in cell viability after 48 hrs by MTT assay; assay type: functional, cell-based; details: HepG2, 48 h

Row | IC50 [µM] | SMILES
13 | 237 | CNC(=O)c1cc(-n2ccc3cc(NC(=O)c4ccc(N5CCOCC5)c(C(F)(F)F)c4)ccc32)ccn1
14 | 1.95 | CNC(=O)c1cc(-n2ccc3cc(NC(=O)Nc4ccc(N5CCN(C)CC5)c(C(F)(F)F)c4)ccc32)ccn1

test system: HepG2; experiment: Induction of apoptosis in human HepG2 cells assessed as increase in caspase 3/7 activity at 1.95 uM; assay type: functional; details: not given

Row | SMILES | Activity [%]
15 | CNC(=O)c1cc(-n2ccc3cc(NC(=O)Nc4ccc(N5CCN(C)CC5)c(C(F)(F)F)c4)ccc32)ccn1 | 67.45

target: hERG (KCNH2) (Homo sapiens, UniProt Q12809); experiment: Potency index, ratio of E-4031 IC50 to compound IC50 for inhibition of human ERG; details: read-out: Ratio IC50

Row | SMILES | selectivity ratio
16 | CNC(=O)c1cc(-n2ccc3cc(NC(=O)Nc4ccc(N5CCN(C)CC5)c(C(F)(F)F)c4)ccc32)ccn1 | 3720

target: Platelet-derived growth factor receptor beta (Homo sapiens) (UniProt P09619); experiment: Inhibition of PDGFRbeta (unknown origin) in presence of [gamma33]-ATP at 10 uM by liquid scintillation counting analysis relative to control; details: not given

Row | inhibition [%] | SMILES
17 | 47.5 | CNC(=O)c1cc(-n2ccc3cc(NC(=O)Nc4ccc(N5CCN(C)CC5)c(C(F)(F)F)c4)ccc32)ccn1

target: T3, Serine/threonine-protein kinase A-Raf (Homo sapiens) (UniProt P10398); experiment: Inhibition of A-Raf (unknown origin) in presence of [gamma33]-ATP at 10 uM by liquid scintillation counting analysis relative to control; details: not given
T3 sequence (whole entry): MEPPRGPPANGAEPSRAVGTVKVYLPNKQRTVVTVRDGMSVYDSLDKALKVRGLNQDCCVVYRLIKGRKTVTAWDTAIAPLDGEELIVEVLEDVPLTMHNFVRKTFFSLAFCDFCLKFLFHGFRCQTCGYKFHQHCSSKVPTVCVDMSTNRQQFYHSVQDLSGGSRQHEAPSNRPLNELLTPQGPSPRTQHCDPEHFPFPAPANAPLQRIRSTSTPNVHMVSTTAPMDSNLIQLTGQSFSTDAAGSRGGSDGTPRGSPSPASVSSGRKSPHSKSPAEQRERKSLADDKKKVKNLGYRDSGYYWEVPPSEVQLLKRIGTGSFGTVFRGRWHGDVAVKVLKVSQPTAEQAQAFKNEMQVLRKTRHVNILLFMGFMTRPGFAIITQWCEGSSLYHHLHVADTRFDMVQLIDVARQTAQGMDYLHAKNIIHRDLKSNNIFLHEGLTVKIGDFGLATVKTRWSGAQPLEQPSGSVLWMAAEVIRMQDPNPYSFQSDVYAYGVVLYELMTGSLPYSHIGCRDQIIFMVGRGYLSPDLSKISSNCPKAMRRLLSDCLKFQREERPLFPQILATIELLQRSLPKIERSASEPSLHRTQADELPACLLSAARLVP

Row | inhibition [%] | SMILES
18 | -4 | CNC(=O)c1cc(-n2ccc3cc(NC(=O)Nc4ccc(N5CCN(C)CC5)c(C(F)(F)F)c4)ccc32)ccn1

test system: Hep 3B2; experiment: Antiproliferative activity against human Hep3B cells assessed as cell viability at 10 uM after 48 hrs by MTT assay relative to control; assay type: functional; details: read-out: Activity

Row | SMILES | viability at 10 µM [%]
19 | CNC(=O)c1cc(-n2ccc3cc(NS(=O)(=O)c4cccc(C(F)(F)F)c4)ccc32)ccn1 | 84
20 | CNC(=O)c1cc(-n2ccc3cc(NC(=S)Nc4ccc(Cl)c(C(F)(F)F)c4)ccc32)ccn1 | 40
21 | CNC(=O)c1cc(-n2ccc3cc(NC(=O)c4ccc(N5CCOCC5)c(C(F)(F)F)c4)ccc32)ccn1 | 53
22 | CNC(=O)c1cc(-n2ccc3cc(NS(=O)(=O)c4ccc(Cl)c(Cl)c4)ccc32)ccn1 | 92
23 | CNC(=O)c1cc(-n2ccc3cc(NC(=O)Nc4ccc(N5CCN(C)CC5)c(C(F)(F)F)c4)ccc32)ccn1 | 92
24 | CNC(=O)c1cc(-n2ccc3cc(NC(=O)Nc4ccc(Cl)c(C(F)(F)F)c4)ccc32)ccn1 | 53

target: T1, Vascular endothelial growth factor receptor 3; experiment: Inhibition of Flt4 (unknown origin) in presence of [gamma33]-ATP at 10 uM by liquid scintillation counting analysis relative to control; details: not given

Row | inhibition [%] | SMILES
25 | 93.5 | CNC(=O)c1cc(-n2ccc3cc(NC(=O)Nc4ccc(N5CCN(C)CC5)c(C(F)(F)F)c4)ccc32)ccn1

target: T4, Mast/stem cell growth factor receptor Kit (Homo sapiens, UniProt P10721); experiment: Inhibition of CKIT (unknown origin) in presence of [gamma33]-ATP at 10 uM by liquid scintillation counting analysis relative to control; details: not given
T4 sequence (P10721 whole entry): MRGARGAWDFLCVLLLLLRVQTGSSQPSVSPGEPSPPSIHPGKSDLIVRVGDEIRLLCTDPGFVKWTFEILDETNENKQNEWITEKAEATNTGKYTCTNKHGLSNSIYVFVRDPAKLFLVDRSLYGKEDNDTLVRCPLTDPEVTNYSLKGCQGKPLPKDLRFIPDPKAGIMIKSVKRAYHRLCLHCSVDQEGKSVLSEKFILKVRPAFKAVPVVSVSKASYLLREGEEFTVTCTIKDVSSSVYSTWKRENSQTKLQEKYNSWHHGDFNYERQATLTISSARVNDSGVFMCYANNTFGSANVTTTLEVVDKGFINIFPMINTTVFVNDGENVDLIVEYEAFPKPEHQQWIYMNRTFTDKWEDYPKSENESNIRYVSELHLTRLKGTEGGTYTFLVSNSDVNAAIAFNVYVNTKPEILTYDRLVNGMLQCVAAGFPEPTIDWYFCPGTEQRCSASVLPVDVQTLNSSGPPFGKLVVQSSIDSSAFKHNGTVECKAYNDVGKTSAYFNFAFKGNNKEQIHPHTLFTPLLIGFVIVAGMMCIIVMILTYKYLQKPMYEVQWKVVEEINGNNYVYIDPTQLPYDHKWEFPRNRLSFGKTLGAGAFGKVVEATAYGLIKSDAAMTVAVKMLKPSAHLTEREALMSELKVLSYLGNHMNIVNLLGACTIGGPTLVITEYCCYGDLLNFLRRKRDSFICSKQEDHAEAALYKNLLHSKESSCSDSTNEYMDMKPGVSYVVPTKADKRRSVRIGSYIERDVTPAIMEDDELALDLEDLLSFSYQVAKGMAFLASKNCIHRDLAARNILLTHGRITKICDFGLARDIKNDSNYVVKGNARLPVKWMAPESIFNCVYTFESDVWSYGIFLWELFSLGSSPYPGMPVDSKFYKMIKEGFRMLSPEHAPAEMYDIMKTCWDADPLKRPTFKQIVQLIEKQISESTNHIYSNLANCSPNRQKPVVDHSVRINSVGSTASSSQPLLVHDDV

Row | inhibition [%] | SMILES
26 | 70.5 | CNC(=O)c1cc(-n2ccc3cc(NC(=O)Nc4ccc(N5CCN(C)CC5)c(C(F)(F)F)c4)ccc32)ccn1

target: T4, Mast/stem cell growth factor receptor Kit; experiment: Inhibition of CKIT (unknown origin) in presence of [gamma33]-ATP by liquid scintillation counting analysis; details: not given

Row | IC50 [µM] | SMILES
27 | 5 | CNC(=O)c1cc(-n2ccc3cc(NC(=O)Nc4ccc(N5CCN(C)CC5)c(C(F)(F)F)c4)ccc32)ccn1

test system: Huh-7; experiment: Antiproliferative activity against human Huh-7 cells assessed as reduction in cell viability after 48 hrs by MTT assay; assay type: functional, cell-based; details: Huh-7, 48 h

Row | IC50 [µM] | SMILES
28 | 21.5 | CNC(=O)c1cc(-n2ccc3cc(NC(=S)Nc4ccc(Cl)c(C(F)(F)F)c4)ccc32)ccn1
29 | 4.31 | CNC(=O)c1cc(-n2ccc3cc(NC(=O)Nc4ccc(N5CCN(C)CC5)c(C(F)(F)F)c4)ccc32)ccn1
30 | 15.4 | CNC(=O)c1cc(-n2ccc3cc(NC(=O)Nc4ccc(Cl)c(C(F)(F)F)c4)ccc32)ccn1

test system: WI-38; experiment: Cytotoxicity against human WI-38 cells assessed as cell viability after 48 hrs by MTT assay; assay type: cell-based; details: WI-38, 48 h

Row | SMILES | IC50 [µM]
31 | CNC(=O)c1cc(-n2ccc3cc(NC(=S)Nc4ccc(Cl)c(C(F)(F)F)c4)ccc32)ccn1 | 28.8
32 | CNC(=O)c1cc(-n2ccc3cc(NC(=O)c4ccc(N5CCOCC5)c(C(F)(F)F)c4)ccc32)ccn1 | 8.48
33 | CNC(=O)c1cc(-n2ccc3cc(NC(=O)Nc4ccc(N5CCN(C)CC5)c(C(F)(F)F)c4)ccc32)ccn1 | > 30
34 | CNC(=O)c1cc(-n2ccc3cc(NC(=O)Nc4ccc(Cl)c(C(F)(F)F)c4)ccc32)ccn1 | 26.7

test system: HepG2; experiment: Induction of necrosis in human HepG2 cells assessed as increase in LDH release at 1.95 uM; assay type: functional; details: not given

Row | SMILES | Activity [%]
35 | CNC(=O)c1cc(-n2ccc3cc(NC(=O)Nc4ccc(N5CCN(C)CC5)c(C(F)(F)F)c4)ccc32)ccn1 | 21.5

target: T5, Platelet-derived growth factor receptor alpha (Homo sapiens, UniProt P16234); experiment: Inhibition of PDGFRalpha (unknown origin) in presence of [gamma33]-ATP by liquid scintillation counting analysis; details: not given
T5 sequence (P16234 whole entry): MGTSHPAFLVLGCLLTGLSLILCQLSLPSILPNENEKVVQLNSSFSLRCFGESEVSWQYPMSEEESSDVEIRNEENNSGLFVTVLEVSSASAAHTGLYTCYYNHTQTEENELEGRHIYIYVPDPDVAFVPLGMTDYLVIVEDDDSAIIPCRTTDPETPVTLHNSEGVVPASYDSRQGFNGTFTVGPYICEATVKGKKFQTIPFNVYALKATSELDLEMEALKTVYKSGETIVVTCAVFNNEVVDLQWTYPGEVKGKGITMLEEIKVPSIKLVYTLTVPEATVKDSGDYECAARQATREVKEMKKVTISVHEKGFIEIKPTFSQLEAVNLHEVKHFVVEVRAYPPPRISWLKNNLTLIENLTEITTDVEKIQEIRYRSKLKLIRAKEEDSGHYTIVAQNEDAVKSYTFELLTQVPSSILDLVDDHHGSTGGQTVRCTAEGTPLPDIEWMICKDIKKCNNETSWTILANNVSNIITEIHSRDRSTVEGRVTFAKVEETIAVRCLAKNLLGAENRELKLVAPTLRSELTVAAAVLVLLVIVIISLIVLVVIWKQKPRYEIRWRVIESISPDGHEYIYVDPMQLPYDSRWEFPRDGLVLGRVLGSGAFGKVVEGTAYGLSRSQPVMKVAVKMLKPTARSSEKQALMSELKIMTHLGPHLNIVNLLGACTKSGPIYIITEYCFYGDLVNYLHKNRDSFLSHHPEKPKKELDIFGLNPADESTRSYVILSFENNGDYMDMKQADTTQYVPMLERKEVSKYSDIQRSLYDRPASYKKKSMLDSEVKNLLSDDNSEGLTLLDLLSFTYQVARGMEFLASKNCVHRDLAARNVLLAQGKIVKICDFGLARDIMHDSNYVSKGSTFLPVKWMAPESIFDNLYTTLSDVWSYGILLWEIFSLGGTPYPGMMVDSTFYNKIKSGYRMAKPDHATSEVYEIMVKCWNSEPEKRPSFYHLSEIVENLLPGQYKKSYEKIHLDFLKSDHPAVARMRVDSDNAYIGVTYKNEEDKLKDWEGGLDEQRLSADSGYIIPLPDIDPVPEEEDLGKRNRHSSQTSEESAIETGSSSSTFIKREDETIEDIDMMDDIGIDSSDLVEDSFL

Row | IC50 [µM] | SMILES
36 | > 5 | CNC(=O)c1cc(-n2ccc3cc(NC(=O)Nc4ccc(N5CCN(C)CC5)c(C(F)(F)F)c4)ccc32)ccn1

target: Dual specificity mitogen-activated protein kinase kinase 1 (Homo sapiens) (UniProt Q02750); experiment: Inhibition of MEK-1 (unknown origin) in presence of [gamma33]-ATP at 10 uM by liquid scintillation counting analysis relative to control; details: not given

Row | inhibition [%] | SMILES
37 | 11.5 | CNC(=O)c1cc(-n2ccc3cc(NC(=O)Nc4ccc(N5CCN(C)CC5)c(C(F)(F)F)c4)ccc32)ccn1

target: T2, Vascular endothelial growth factor receptor 2; experiment: Inhibition of KDR (unknown origin) in presence of [gamma33]-ATP by liquid scintillation counting analysis; details: not given

Row | IC50 [µM] | SMILES
38 | 0.173 | CNC(=O)c1cc(-n2ccc3cc(NC(=O)Nc4ccc(N5CCN(C)CC5)c(C(F)(F)F)c4)ccc32)ccn1

target: T5, Platelet-derived growth factor receptor alpha; experiment: Inhibition of PDGFRalpha (unknown origin) in presence of [gamma33]-ATP at 10 uM by liquid scintillation counting analysis relative to control; details: not given

Row | inhibition [%] | SMILES
39 | 71.5 | CNC(=O)c1cc(-n2ccc3cc(NC(=O)Nc4ccc(N5CCN(C)CC5)c(C(F)(F)F)c4)ccc32)ccn1

test system: Huh-7; experiment: Antiproliferative activity against human Huh-7 cells assessed as cell viability at 10 uM after 48 hrs by MTT assay relative to control; assay type: functional; details: read-out: Activity

Row | SMILES | viability at 10 µM [%]
40 | CNC(=O)c1cc(-n2ccc3cc(NS(=O)(=O)c4cccc(C(F)(F)F)c4)ccc32)ccn1 | 94
41 | CNC(=O)c1cc(-n2ccc3cc(NC(=S)Nc4ccc(Cl)c(C(F)(F)F)c4)ccc32)ccn1 | 76
42 | CNC(=O)c1cc(-n2ccc3cc(NC(=O)c4ccc(N5CCOCC5)c(C(F)(F)F)c4)ccc32)ccn1 | 46
43 | CNC(=O)c1cc(-n2ccc3cc(NS(=O)(=O)c4ccc(Cl)c(Cl)c4)ccc32)ccn1 | 94
44 | CNC(=O)c1cc(-n2ccc3cc(NC(=O)Nc4ccc(N5CCN(C)CC5)c(C(F)(F)F)c4)ccc32)ccn1 | 20
45 | CNC(=O)c1cc(-n2ccc3cc(NC(=O)Nc4ccc(Cl)c(C(F)(F)F)c4)ccc32)ccn1 | 40
